Legend:
Cbl-b = Cbl-b (Homo sapiens (Human), UniProt Q13191); assay: Cbl-b LCK Ub TR-FRET assay (Cbl-b Lck HTRF); format: biochemical; conditions: for (fold-selectivity): Cbl-b and C-Cbl selectivity, Lck HTRF; for IC50: read-out: Cbl-b Lck HTRF IC50
Description: (§1) Compounds were 3-fold serially diluted in DMSO in a 384-well polypropylene plate (#P-05525-BC; Labcyte) to generate a source plate with 10 concentrations of each compound, top concentration=2 mM. 80 nL of DMSO or compounds were transferred to each well of a black 384-well ProxiPlate (#6008260; PerkinElmer) using a Labcyte Echo. 1× assay buffer (50 mM HEPES pH7.0, 100 mM NaCl, 0.01% BSA, 0.01% Triton-X100, 1 mM DTT), 2× enzyme solution (16 nM Biotin-Cbl-b or 12 nM Biotin-c-Cbl in 1× assay buffer), 2× kinase mixture (120 nM His-LCK, 1 mM ATP, 10 mM MgCl2 in assay buffer) and 2.33× detection mixture (4.66× solution 1: 163 nM Anti-HA-D2 antibody (#610HADAB; PerkinElmer), 27.96 nM Streptavidin-EU (#AD0062; PerkinElmer), 1.398 mM EDTA in 1× assay buffer+4.66× solution 2: 2.796 μM UBE2D2/Methylated-HA-Ubiquitin thioester adduct (BostonBiochem) in 1× assay buffer) were prepared. 4 μL of 2× enzyme solution was added to each well containing compound, briefly centrifuged to mix, and incubated for 60 min at room temperature. 4 μL of 2× kinase mixture was added, briefly centrifuged to mix, and incubated for 90 min. at room temperature. 6 μL of detection mixture was added to all wells and briefly centrifuged before incubating for 20 min at room temperature. Plates were read for TR-FRET using an Envision at excitation 340 nm, emission at 615 and 665 nm, 4 flashes per well. IC50 was generated using no LCK as the low control and DMSO as the high control.
(§2) Cbl-b Lck HTRF data in Table 3 is measured according to Example 25 herein; C-cbl Lck HTRF data is measured according to Example 25 herein.
(§3) SPR and the LCK biochemical assay are orthogonal assays: SPR is a protein binding assay while the LCK assay is an enzyme activity assay. SPR measures compound binding affinity to CBL-B/C-CBL, whereas LCK assay measures compound inhibition of CBL-B/C-CBL ubiquitin transfer activity.

c-Cbl = c-Cbl (Homo sapiens (Human), UniProt P22681); assay: C-cbl LCK Ub TR-FRET assay (C-cbl Lck HTRF); format: biochemical
Description: as §1, §2, §3

Sequence of c-Cbl (P22681 47-435): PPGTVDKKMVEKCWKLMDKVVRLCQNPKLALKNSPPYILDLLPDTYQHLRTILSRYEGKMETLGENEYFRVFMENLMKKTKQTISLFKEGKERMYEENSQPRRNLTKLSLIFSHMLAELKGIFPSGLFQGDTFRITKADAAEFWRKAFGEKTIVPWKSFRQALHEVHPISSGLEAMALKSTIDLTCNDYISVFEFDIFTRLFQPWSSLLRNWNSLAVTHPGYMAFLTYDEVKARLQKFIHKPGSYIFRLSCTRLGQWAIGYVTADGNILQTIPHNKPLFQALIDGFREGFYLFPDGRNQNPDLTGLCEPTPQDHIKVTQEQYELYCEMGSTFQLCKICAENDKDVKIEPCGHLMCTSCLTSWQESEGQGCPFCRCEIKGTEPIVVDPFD
Sequence of Cbl-b (Q13191 40-426): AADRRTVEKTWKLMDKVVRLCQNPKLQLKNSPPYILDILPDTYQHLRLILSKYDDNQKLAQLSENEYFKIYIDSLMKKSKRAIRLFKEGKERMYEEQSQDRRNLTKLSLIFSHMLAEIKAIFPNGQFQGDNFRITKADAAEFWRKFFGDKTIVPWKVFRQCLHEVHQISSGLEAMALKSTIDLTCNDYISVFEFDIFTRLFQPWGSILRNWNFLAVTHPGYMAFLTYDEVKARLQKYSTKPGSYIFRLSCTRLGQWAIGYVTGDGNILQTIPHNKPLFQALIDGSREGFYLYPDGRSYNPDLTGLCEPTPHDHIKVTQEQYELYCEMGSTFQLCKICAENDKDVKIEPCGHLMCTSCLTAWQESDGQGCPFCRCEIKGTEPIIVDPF

Structure (SMILES)	(fold-selectivity) (Cbl-b)	IC50 (Cbl-b) [nM]	IC50 (c-Cbl) [nM]
C[C@H](Cc1nncn1C)c1cccc(NC(=O)c2nc(C(F)(F)F)cn2C)c1 [Compound 121, (R)-1-methyl-N-(3-(1-(4-methyl-4H-1,2,4-triazol-3-yl)propan-2-yl)phenyl)-4-(trifluoromethyl)-1H-imidazole-2-carboxamide]	(0.67x)	4400	2900
C[C@H](Cc1nncn1C)c1cccc(NC(=O)c2nc(C3CC3)c[nH]2)c1 [Compound 122, (R)-4-cyclopropyl-N-(3-(1-(4-methyl-4H-1,2,4-triazol-3-yl)propan-2-yl)phenyl)-1H-imidazole-2-carboxamide]	(0.79x)	2800	2200
Cn1cnnc1CC1(c2cccc(NC(=O)c3nc(C(F)(F)F)c[nH]3)c2)COC1 [Compound 123, N-(3-(3-((4-methyl-4H-1,2,4-triazol-3-yl)methyl)oxetan-3-yl)phenyl)-4-(trifluoromethyl)-1H-imidazole-2-carboxamide]	(0.77x)	2300	1800
Cn1cnnc1C(F)C1(c2cccc(NC(=O)c3nc(C(F)(F)F)c[nH]3)c2)COC1 (stereo not drawn) [Compound 124, N-(3-(3-(fluoro(4-methyl-4H-1,2,4-triazol-3-yl)methyl)oxetan-3-yl)phenyl)-4-(trifluoromethyl)-1H-imidazole-2-carboxamide]	(1.1x)	3700	3900
CC(C)[C@H]1CN(C)CCN1Cc1cc(C(=O)Nc2cccc(C3([C@H](F)c4nncn4C)CC(F)(F)C3)c2)nc(C2CC2)c1 [Compound 223, 6-cyclopropyl-N-(3-(3,3-difluoro-1-((S)-fluoro(4-methyl-4H-1,2,4-triazol-3-yl)methyl)cyclobutyl)phenyl)-4-(((S)-2-isopropyl-4-methylpiperazin-1-yl)methyl)picolinamide]	(1.0x)	11	11

Continued, values first:

(fold-selectivity) (Cbl-b)	IC50 (Cbl-b) [nM]	IC50 (c-Cbl) [nM]	Structure (SMILES)
(1.2x)	21	27	C[C@H](c1cc(C(=O)Nc2cccc(C3([C@@H](F)c4nncn4C)COC3)c2)nc(C2CC2)c1)N1CC(C)(F)C1 [Compound 113, 6-cyclopropyl-N-(3-(3-((R)-fluoro(4-methyl-4H-1,2,4-triazol-3-yl)methyl)oxetan-3-yl)phenyl)-4-((R)-1-(3-fluoro-3-methylazetidin-1-yl)ethyl)picolinamide]
(0.76x)	290	220	C[C@@H](c1cc(C(=O)Nc2cccc(C3([C@H](F)c4nncn4C)COC3)c2)nc(C2CC2)c1)N1CC(C)(F)C1 [Compound 114, 6-cyclopropyl-N-(3-(3-((S)-fluoro(4-methyl-4H-1,2,4-triazol-3-yl)methyl)oxetan-3-yl)phenyl)-4-((S)-1-(3-fluoro-3-methylazetidin-1-yl)ethyl)picolinamide]
(1.1x)	50	56	C[C@H](c1cc(C(=O)Nc2cccc(C3([C@H](F)c4nncn4C)COC3)c2)nc(C2CC2)c1)N1CC(C)(F)C1 [Compound 115, 6-cyclopropyl-N-(3-(3-((S)-fluoro(4-methyl-4H-1,2,4-triazol-3-yl)methyl)oxetan-3-yl)phenyl)-4-((R)-1-(3-fluoro-3-methylazetidin-1-yl)ethyl)picolinamide]
(1.2x)	7.1	8.4	CC(C)[C@H]1CN(C)CCN1Cc1cc(C(=O)Nc2cccc(C3([C@@H](F)c4nncn4C)CC(F)(F)C3)c2)nc(C2CC2)c1 [Compound 225, 6-cyclopropyl-N-(3-(3,3-difluoro-1-((R)-fluoro(4-methyl-4H-1,2,4-triazol-3-yl)methyl)cyclobutyl)phenyl)-4-(((S)-2-isopropyl-4-methylpiperazin-1-yl)methyl)picolinamide]

Source: patent publication US20240300927A1, “AMIDES AS CBL-B INHIBITORS” (Genentech, Inc., priority 2021, published 2024)
